Like-named read-outs stand apart in the source and are kept apart here.
Experiments:
[1] = tested on: primary human renal mesangial cells (HRMCs); experiment: ET-1 induced proliferation (BrdU) of primary human renal mesangial cells; type: cell-based; details: 10 ng/mL ET-1, read-out: IC50, ET-1 induced HRMC proliferation
[2] = tested on: canonical signaling pathways in kidney tissue of g-ddY mice; experiment: Ingenuity Pathway Analysis (IPA) canonical pathways, g-ddY mouse kidney RNA-seq; type: in vivo

Compound `CCCCN(CCCC)C(=O)CN1C[C@H](c2ccc3c(c2)OCO3)[C@@H](C(=O)O)[C@@H]1c1ccc(OC)cc1` [Atrasentan, (2R,3R,4S)-4-(1,3-benzodioxol-5-yl)-1-[2-(dibutylamino)-2-oxoethyl]-2-(4-methoxyphenyl)pyrrolidine-3-carboxylic acid] has an IC50 ([1]; 48 hours) of 4.2 nM, an IC50 ([1]; Homo sapiens, Mesangial cell, 48 h) of ~5.1 nM and an IC50 ([1]; Homo sapiens, Mesangial cell, 72 h) of ~50.8 nM. The “Acute Myeloid Leukemia Signaling z-score” value ([2]; 10 mg/kg/day) was −0.258, the “Acute Phase Response Signaling z-score” value ([2]; 10 mg/kg/day) was −1.177 and the “Apelin Cardiac Fibroblast Signaling Pathway z-score” value ([2]; 10 mg/kg/day) was 1.134. For the same compound, the “CXCR4 Signaling z-score” value ([2]; 10 mg/kg/day) was 0, the “Cardiac Hypertrophy Signaling (Enhanced) z-score” value (shortened to “Cardiac Hypertrophy Signaling”) ([2]; 10 mg/kg/day) was 0.361 and the “Folate Polyglutamylation z-score” value ([2]; 10 mg/kg/day) was −1. For the same compound, the “GM-CSF Signaling z-score” value ([2]; 10 mg/kg/day) was −0.243, the “GP6 Signaling Pathway z-score” value ([2]; 10 mg/kg/day) was 0 and the “Glioblastoma Multiforme Signaling z-score” value ([2]; 10 mg/kg/day) was 1. The “Glioma Signaling z-score” value ([2]; 10 mg/kg/day) was 0.5, the “Gluconeogenesis I z-score” value ([2]; 10 mg/kg/day) was 0.905 and the “Glutathione Redox Reactions I z-score” value ([2]; 10 mg/kg/day) was −0.302. The “Glycolysis I z-score” value ([2]; 10 mg/kg/day) was 0.577, the “Gα12/13 Signaling z-score” value ([2]; 10 mg/kg/day) was −1.279 and the “Gαg Signaling z-score” value ([2]; 10 mg/kg/day) was 1. The “HGF Signaling z-score” value ([2]; 10 mg/kg/day) was −0.688, the “Hepatic Fibrosis Signaling Pathway z-score” value ([2]; 10 mg/kg/day) was −0.25 and the “IGF-1 Signaling z-score” value ([2]; 10 mg/kg/day) was 0.243. For the same compound, the “IL-8 Signaling z-score” value ([2]; 10 mg/kg/day) was 0.365, the “Integrin Signaling z-score” value ([2]; 10 mg/kg/day) was −0.928 and the “LPS/IL-1 Mediated Inhibition of RXR Function z-score” value (“LPS/IL-1 Mediated Inhibition” for short) ([2]; 10 mg/kg/day) was 0.535. The “Lymphotoxin β Receptor Signaling z-score” value ([2]; 10 mg/kg/day) was −1.508, the “Macropinocytosis Signaling z-score” value ([2]; 10 mg/kg/day) was 0.277 and the “NF-κB Activation by Viruses z-score” value ([2]; 10 mg/kg/day) was 0. The “NF-κB Signaling z-score” value ([2]; 10 mg/kg/day) was 0.507, the “NRF2-mediated Oxidative Stress Response z-score” value ([2]; 10 mg/kg/day) was 0.471 and the “Oxidative Phosphorylation z-score” value ([2]; 10 mg/kg/day) was −0.309. For the same compound, the “PDGF Signaling z-score” value ([2]; 10 mg/kg/day) was −0.5, the “PEDF Signaling z-score” value ([2]; 10 mg/kg/day) was 0 and the “PI3K Signaling in B Lymphocytes z-score” value ([2]; 10 mg/kg/day) was 0.426. For the same compound, the “PI3K/AKT Signaling z-score” value ([2]; 10 mg/kg/day) was 0.447, the “PTEN Signaling z-score” value ([2]; 10 mg/kg/day) was −0.426 and the “Paxillin Signaling z-score” value ([2]; 10 mg/kg/day) was −1. The “Relaxin Signaling z-score” value ([2]; 10 mg/kg/day) was −0.535, the “STAT3 Pathway z-score” value ([2]; 10 mg/kg/day) was −0.218 and the “Sirtuin Signaling Pathway z-score” value ([2]; 10 mg/kg/day) was 0.849. The “Small Cell Lung Cancer Signaling z-score” value ([2]; 10 mg/kg/day) was −0.905, the “Sperm Motility z-score” value ([2]; 10 mg/kg/day) was 1.213 and the “Sphingosine-1-phosphate Signaling z-score” value ([2]; 10 mg/kg/day) was −0.218. For the same compound, the “TCA Cycle II (Eukalyotic) z-score” value ([2]; 10 mg/kg/day) was 0.277, the “TNFR2 Signaling z-score” value ([2]; 10 mg/kg/day) was −1.89 and the “Thrombin Signaling z-score” value ([2]; 10 mg/kg/day) was 1.3. For the same compound, the “Toll-like Receptor Signaling z-score” value ([2]; 10 mg/kg/day) was −0.302, the “Tryptophan Degradation III (Eukalyotic) z-score” value (“Tryptophan Degradation III” for short) ([2]; 10 mg/kg/day) was 0.378 and the “Xenobiotic Metabolism General Signaling Pathway z-score” value ([2]; 10 mg/kg/day) was −0.577. For the same compound, the “Acute Myeloid Leukemia Signaling z-score” value ([2]; 20 mg/kg/day) was −0.853, the “Acute Phase Response Signaling z-score” value ([2]; 20 mg/kg/day) was −1.298 and the “Apelin Cardiac Fibroblast Signaling Pathway z-score” value ([2]; 20 mg/kg/day) was 0.577. For the same compound, the “CXCR4 Signaling z-score” value ([2]; 20 mg/kg/day) was 0.333, the “Cardiac Hypertrophy Signaling” value ([2]; 20 mg/kg/day) was −0.396 and the “Folate Polyglutamylation z-score” value ([2]; 20 mg/kg/day) was 0.447. For the same compound, the “GM-CSF Signaling z-score” value ([2]; 20 mg/kg/day) was −1.46, the “GP6 Signaling Pathway z-score” value ([2]; 20 mg/kg/day) was −1.715 and the “Glioblastoma Multiforme Signaling z-score” value ([2]; 20 mg/kg/day) was −0.16. For the same compound, the “Glioma Signaling z-score” value ([2]; 20 mg/kg/day) was −0.816, the “Gluconeogenesis I z-score” value ([2]; 20 mg/kg/day) was −0.302 and the “Glutathione Redox Reactions I z-score” value ([2]; 20 mg/kg/day) was −0.277. The “Glycolysis I z-score” value ([2]; 20 mg/kg/day) was 0, the “Gα12/13 Signaling z-score” value ([2]; 20 mg/kg/day) was −0.707 and the “Gαg Signaling z-score” value ([2]; 20 mg/kg/day) was −0.822. The “HGF Signaling z-score” value ([2]; 20 mg/kg/day) was 0, the “Hepatic Fibrosis Signaling Pathway z-score” value ([2]; 20 mg/kg/day) was −3.181 and the “IGF-1 Signaling z-score” value ([2]; 20 mg/kg/day) was −0.408. The “IL-8 Signaling z-score” value ([2]; 20 mg/kg/day) was −0.905, the “Integrin Signaling z-score” value ([2]; 20 mg/kg/day) was −1.342 and the “LPS/IL-1 Mediated Inhibition” value ([2]; 20 mg/kg/day) was 0.626. For the same compound, the “Lymphotoxin β Receptor Signaling z-score” value ([2]; 20 mg/kg/day) was −1.291, the “Macropinocytosis Signaling z-score” value ([2]; 20 mg/kg/day) was 0.243 and the “NF-κB Activation by Viruses z-score” value ([2]; 20 mg/kg/day) was −0.816. For the same compound, the “NF-κB Signaling z-score” value ([2]; 20 mg/kg/day) was −1.313, the “NRF2-mediated Oxidative Stress Response z-score” value ([2]; 20 mg/kg/day) was −0.392 and the “Oxidative Phosphorylation z-score” value ([2]; 20 mg/kg/day) was −0.283. For the same compound, the “PDGF Signaling z-score” value ([2]; 20 mg/kg/day) was −2.353, the “PEDF Signaling z-score” value ([2]; 20 mg/kg/day) was −1.043 and the “PI3K Signaling in B Lymphocytes z-score” value ([2]; 20 mg/kg/day) was −1.333. For the same compound, the “PI3K/AKT Signaling z-score” value ([2]; 20 mg/kg/day) was −0.18, the “PTEN Signaling z-score” value ([2]; 20 mg/kg/day) was 1.029 and the “Paxillin Signaling z-score” value ([2]; 20 mg/kg/day) was −0.626. For the same compound, the “Relaxin Signaling z-score” value ([2]; 20 mg/kg/day) was −0.853, the “STAT3 Pathway z-score” value ([2]; 20 mg/kg/day) was 0.192 and the “Sirtuin Signaling Pathway z-score” value ([2]; 20 mg/kg/day) was 0.62. For the same compound, the “Small Cell Lung Cancer Signaling z-score” value ([2]; 20 mg/kg/day) was −1.886, the “Sperm Motility z-score” value ([2]; 20 mg/kg/day) was 1.633 and the “Sphingosine-1-phosphate Signaling z-score” value ([2]; 20 mg/kg/day) was −0.73. For the same compound, the “TCA Cycle II (Eukalyotic) z-score” value ([2]; 20 mg/kg/day) was −0.535, the “TNFR2 Signaling z-score” value ([2]; 20 mg/kg/day) was 0 and the “Thrombin Signaling z-score” value ([2]; 20 mg/kg/day) was −0.926. The “Toll-like Receptor Signaling z-score” value ([2]; 20 mg/kg/day) was −0.258, the “Tryptophan Degradation III” value ([2]; 20 mg/kg/day) was −1.265 and the “Xenobiotic Metabolism General Signaling Pathway z-score” value ([2]; 20 mg/kg/day) was −1.581. For the same compound, the “Acute Myeloid Leukemia Signaling z-score” value ([2]; 30 mg/kg/day) was −1.134, the “Acute Phase Response Signaling z-score” value ([2]; 30 mg/kg/day) was −2.832 and the “Apelin Cardiac Fibroblast Signaling Pathway z-score” value ([2]; 30 mg/kg/day) was 1.732. For the same compound, the “CXCR4 Signaling z-score” value ([2]; 30 mg/kg/day) was −2.214, the “Cardiac Hypertrophy Signaling” value ([2]; 30 mg/kg/day) was −6.236 and the “Folate Polyglutamylation z-score” value ([2]; 30 mg/kg/day) was 1.342. For the same compound, the “GM-CSF Signaling z-score” value ([2]; 30 mg/kg/day) was −1.225, the “GP6 Signaling Pathway z-score” value ([2]; 30 mg/kg/day) was −4.938 and the “Glioblastoma Multiforme Signaling z-score” value ([2]; 30 mg/kg/day) was −3.464. For the same compound, the “Glioma Signaling z-score” value ([2]; 30 mg/kg/day) was −2.353, the “Gluconeogenesis I z-score” value ([2]; 30 mg/kg/day) was 3.464 and the “Glutathione Redox Reactions I z-score” value ([2]; 30 mg/kg/day) was 2.496. For the same compound, the “Glycolysis I z-score” value ([2]; 30 mg/kg/day) was 3.051, the “Gα12/13 Signaling z-score” value ([2]; 30 mg/kg/day) was −0.949 and the “Gαg Signaling z-score” value ([2]; 30 mg/kg/day) was −2.16. For the same compound, the “HGF Signaling z-score” value ([2]; 30 mg/kg/day) was −3.182, the “Hepatic Fibrosis Signaling Pathway z-score” value ([2]; 30 mg/kg/day) was −5.058 and the “IGF-1 Signaling z-score” value ([2]; 30 mg/kg/day) was −1.633. The IL-6 signaling ([2]; 30 mg/kg/day) was “reduced”, the “IL-8 Signaling z-score” value ([2]; 30 mg/kg/day) was −2.828 and the “Integrin Signaling z-score” value ([2]; 30 mg/kg/day) was −3.311. The “LPS/IL-1 Mediated Inhibition” value ([2]; 30 mg/kg/day) was −2.746, the “Lymphotoxin β Receptor Signaling z-score” value ([2]; 30 mg/kg/day) was −2.183 and the “Macropinocytosis Signaling z-score” value ([2]; 30 mg/kg/day) was −2.828. For the same compound, the “NF-κB Activation by Viruses z-score” value ([2]; 30 mg/kg/day) was −3.9, the “NF-κB Signaling z-score” value ([2]; 30 mg/kg/day) was −4.636 and the NF-κB signaling ([2]; 30 mg/kg/day) was “reduced”. The “NRF2-mediated Oxidative Stress Response z-score” value ([2]; 30 mg/kg/day) was 1.3, the “Oxidative Phosphorylation z-score” value ([2]; 30 mg/kg/day) was 7.02 and the “PDGF Signaling z-score” value ([2]; 30 mg/kg/day) was −3.528. For the same compound, the PDGF signaling ([2]; 30 mg/kg/day) was “reduced”, the “PEDF Signaling z-score” value ([2]; 30 mg/kg/day) was −3.922 and the “PI3K Signaling in B Lymphocytes z-score” value ([2]; 30 mg/kg/day) was −4.041. For the same compound, the “PI3K/AKT Signaling z-score” value ([2]; 30 mg/kg/day) was −1.947, the “PTEN Signaling z-score” value ([2]; 30 mg/kg/day) was 2.214 and the “Paxillin Signaling z-score” value ([2]; 30 mg/kg/day) was −2.268. The “Relaxin Signaling z-score” value ([2]; 30 mg/kg/day) was −2.449, the “STAT3 Pathway z-score” value ([2]; 30 mg/kg/day) was −2.556 and the “Sirtuin Signaling Pathway z-score” value ([2]; 30 mg/kg/day) was −1.254. The “Small Cell Lung Cancer Signaling z-score” value ([2]; 30 mg/kg/day) was −2.236, the “Sperm Motility z-score” value ([2]; 30 mg/kg/day) was −2.263 and the “Sphingosine-1-phosphate Signaling z-score” value ([2]; 30 mg/kg/day) was −1.808. For the same compound, the “TCA Cycle II (Eukalyotic) z-score” value ([2]; 30 mg/kg/day) was 3.207, the “TNFR2 Signaling z-score” value ([2]; 30 mg/kg/day) was −1.291 and the “Thrombin Signaling z-score” value ([2]; 30 mg/kg/day) was −2.828. The “Toll-like Receptor Signaling z-score” value ([2]; 30 mg/kg/day) was −2.982, the “Tryptophan Degradation III” value ([2]; 30 mg/kg/day) was 3.742 and the “Xenobiotic Metabolism General Signaling Pathway z-score” value ([2]; 30 mg/kg/day) was −0.152.

Source: patent US20210353593A1 (Chinook Therapeutics, Inc., priority 2019, published 2021)
